Data from US20230295260A1, “GLP RECEPTOR AGONISTS” (HEPTARES THERAPEUTICS LIMITED, priority 2020, published 2023).
Non-standard residues stand in square brackets, D forms with d. Residues, ends and D or L forms follow the SMILES beside them. *: point of attachment. Malonyl(2,2-Me2,histaminyl) = CC(C)(C(=O)NCCc1cnc[nH]1)C(=O)*; Ala(1H-tetrazol-5-yl) = N[C@@H](Cc1nnn[nH]1)C(=O)O; αMeF = C[C@](N)(Cc1ccccc1)C(=O)O; αMeL = CC(C)C[C@](C)(N)C(=O)O; Nle = CCCC[C@H](N)C(=O)O; Aib = CC(C)(N)C(=O)O; Alloc = C=CCOC(=O)*

Tests used:
human GLP2 receptor = biological target: T1, human GLP2 receptor (Homo sapiens, UniProt O95838); assay: cAMP accumulation assay (HTRF), functional agonism of human GLP2 receptor in HEK cells; conditions: for Emax: HEK293, read-out: Human GLP-2R agonist cAMP Emax;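 as to all read-outs here: HEK cells transduced via BacMam to express human GLP2 receptor, agonist-stimulated cAMP measured by HTRF after 45 min at 37 °C in HBSS with 0.5 mM IBMX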
T1 sequence (O95838 1-553): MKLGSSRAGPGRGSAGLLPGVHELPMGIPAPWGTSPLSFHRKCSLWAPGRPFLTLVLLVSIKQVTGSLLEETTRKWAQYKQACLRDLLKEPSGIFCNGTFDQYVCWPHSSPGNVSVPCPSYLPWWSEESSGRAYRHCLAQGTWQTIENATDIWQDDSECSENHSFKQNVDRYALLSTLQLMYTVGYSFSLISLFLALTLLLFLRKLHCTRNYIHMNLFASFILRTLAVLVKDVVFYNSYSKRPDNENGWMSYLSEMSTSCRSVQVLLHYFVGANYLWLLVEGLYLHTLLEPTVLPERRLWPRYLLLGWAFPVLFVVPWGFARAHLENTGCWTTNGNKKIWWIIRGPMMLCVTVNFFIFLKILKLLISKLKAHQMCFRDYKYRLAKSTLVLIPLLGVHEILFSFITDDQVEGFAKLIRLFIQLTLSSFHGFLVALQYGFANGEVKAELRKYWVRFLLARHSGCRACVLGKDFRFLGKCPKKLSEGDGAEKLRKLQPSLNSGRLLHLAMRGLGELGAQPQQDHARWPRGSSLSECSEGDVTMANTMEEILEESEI
Experimental: (§1) The functional activity of the peptides were assessed using a HTRF cAMP assay. pEC50 values are quoted.
(§2) cAMP production upon agonist stimulation of human GLP2 or GLP1 receptor was assessed utilizing HiRange cAMP kit (Cisbio). In brief, HEK cells were infected with either human GLP2 or GLP1 receptor BacMam virus for 24 hours and frozen for later use in the assay. […] Cells were prepared in the assay buffer (HBSS (Lonza) supplemented with 0.5 mM IBMX (Tocris)). After 45 min incubation at 37° C., the reaction was stopped by addition of the HTRF detection reagents in the lysis buffer provided in the kit.

human GLP1 receptor = biological target: T2, human GLP1 receptor (Homo sapiens, UniProt P43220); assay: cAMP accumulation assay (HTRF), functional agonism of human GLP1 receptor in HEK cells; type: cell-based; conditions: HEK cells, human GLP1 receptor BacMam, 45 min 37° C.; for Emax: HEK293, read-out: Human GLP-1R agonist cAMP Emax; for EC50: read-out: Human GLP-1R agonist cAMP pEC50 (converted)
T2 construct: expressed in transfected cells; host or cells: HEK cells, BacMam virus transduction
T2 sequence (P43220 24-463): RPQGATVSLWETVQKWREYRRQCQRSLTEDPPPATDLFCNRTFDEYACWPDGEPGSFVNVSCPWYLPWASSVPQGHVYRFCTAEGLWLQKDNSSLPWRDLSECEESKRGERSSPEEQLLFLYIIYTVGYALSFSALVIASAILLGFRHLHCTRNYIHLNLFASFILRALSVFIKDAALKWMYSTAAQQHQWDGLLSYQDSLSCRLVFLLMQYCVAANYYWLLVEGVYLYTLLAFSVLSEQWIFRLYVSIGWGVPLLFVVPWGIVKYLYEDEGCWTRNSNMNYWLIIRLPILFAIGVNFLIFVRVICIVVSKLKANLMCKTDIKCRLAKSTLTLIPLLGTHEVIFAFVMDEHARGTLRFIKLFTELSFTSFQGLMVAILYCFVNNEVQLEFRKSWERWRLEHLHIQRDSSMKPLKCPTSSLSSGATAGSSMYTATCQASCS
Experimental: as §1, §2

Compound	EC50 (human GLP2 receptor) [nM]	Emax (human GLP2 receptor) [%]	Emax (human GLP1 receptor) [%]	EC50 (human GLP1 receptor) [nM]
C=CCOC(=O)NCCCC[C@H](NC(=O)[C@H](CC(C)C)NC(=O)[C@H](CC(=O)O)NC(=O)[C@H](CC(C)C)NC(=O)[C@@H](NC(=O)[C@@H](NC(=O)[C@@H](Cc1ccccc1)NC(=O)[C@H](CCCC)NC(=O)[C@H](CCC(=O)O)NC(=O)[C@H](CC(=O)O)NC(=O)[C@H](CO)NC(=O)[C@](C)(Cc1ccccc1)NC(=O)[C@H](CO)NC(=O)[C@@H](C)NC(=O)[C@H](Cc1nn[nH]n1)NC(=O)C(C)(C)C(=O)NCCc1c[nH]cn1)[C@@H](C)O)[C@@H](C)CC)C(=O)NC(C)(C)C(=O)N[C@@H](C)C(=O)N[C@@H](CCCCN)C(=O)N[C@@H](CC(=O)O)C(=O)N[C@@H](Cc1ccccc1)C(=O)N[C@H](C(=O)N[C@@H](CC(N)=O)C(=O)N[C@@H](Cc1c[nH]c2ccccc12)C(=O)N[C@@H](CC(C)C)C(=O)N[C@H](C(=O)N[C@@H](CCC(N)=O)C(=O)N[C@H](C(=O)N[C@@H](CCCCN)C(=O)N[C@H](C(=O)N[C@H](C(=O)N[C@@H](CC(=O)O)C(N)=O)[C@@H](C)O)[C@@H](C)CC)[C@@H](C)O)[C@@H](C)CC)[C@@H](C)CC [Example 11] ({Malonyl(2,2-Me2,histaminyl)}-[Ala(1H-tetrazol-5-yl)][dA]S[αMeF]SDE[Nle][dF]TILDLK(Alloc)[Aib]AKDFINWLIQTKITD-NH2)	0.0126	102	95.4	1.58
C=CCOC(=O)NCCCC[C@H](NC(=O)[C@H](C)NC(=O)[C@H](C)NC(=O)[C@H](CCCCNC(=O)OCC=C)NC(=O)[C@H](CC(C)C)NC(=O)[C@H](CC(=O)O)NC(=O)[C@H](CC(C)C)NC(=O)[C@@H](NC(=O)[C@@H](NC(=O)[C@@H](Cc1ccccc1)NC(=O)[C@H](CCCC)NC(=O)[C@H](CCC(=O)O)NC(=O)[C@H](CC(=O)O)NC(=O)[C@H](CO)NC(=O)[C@H](Cc1ccccc1)NC(=O)[C@H](CO)NC(=O)CNC(=O)[C@H](Cc1nn[nH]n1)NC(=O)C(C)(C)C(=O)NCCc1c[nH]cn1)[C@@H](C)O)[C@@H](C)CC)C(=O)N[C@@H](CC(=O)O)C(=O)N[C@@H](Cc1ccccc1)C(=O)N[C@H](C(=O)N[C@@H](CC(N)=O)C(=O)N[C@@H](Cc1c[nH]c2ccccc12)C(=O)N[C@@H](CC(C)C)C(=O)N[C@H](C(=O)N[C@@H](CCC(N)=O)C(=O)N[C@H](C(=O)N[C@@H](CCCCN)C(=O)N[C@H](C(=O)N[C@H](C(=O)N[C@@H](CC(=O)O)C(N)=O)[C@@H](C)O)[C@@H](C)CC)[C@@H](C)O)[C@@H](C)CC)[C@@H](C)CC [Example 14] ({Malonyl(2,2-Me2,histaminyl)}-[Ala(1H-tetrazol-5-yl)]GSFSDE[Nle][dF]TILDLK(Alloc)AAK(Alloc)DFINWLIQTKITD-NH2)	0.01	101	96.1	12.6
C=CCOC(=O)NCCCC[C@H](NC(=O)[C@H](C)NC(=O)C(C)(C)NC(=O)[C@H](CCCCNC(=O)OCC=C)NC(=O)[C@H](CC(C)C)NC(=O)[C@H](CC(=O)O)NC(=O)[C@H](CC(C)C)NC(=O)C(C)(C)NC(=O)[C@@H](NC(=O)[C@@H](Cc1ccccc1)NC(=O)[C@H](CCCC)NC(=O)[C@H](CCC(=O)O)NC(=O)[C@H](CC(=O)O)NC(=O)[C@H](CO)NC(=O)[C@H](Cc1ccccc1)NC(=O)[C@H](CO)NC(=O)CNC(=O)[C@H](Cc1nn[nH]n1)NC(=O)C(C)(C)C(=O)NCCc1c[nH]cn1)[C@@H](C)O)C(=O)N[C@@H](CC(=O)O)C(=O)N[C@@H](Cc1ccccc1)C(=O)N[C@H](C(=O)N[C@@H](CC(N)=O)C(=O)N[C@@H](Cc1c[nH]c2ccccc12)C(=O)N[C@@H](CC(C)C)C(=O)N[C@H](C(=O)N[C@@H](CCC(N)=O)C(=O)N[C@H](C(=O)N[C@@H](CCCCN)C(=O)N[C@H](C(=O)N[C@H](C(=O)N[C@@H](CC(=O)O)C(N)=O)[C@@H](C)O)[C@@H](C)CC)[C@@H](C)O)[C@@H](C)CC)[C@@H](C)CC [Example 16] ({Malonyl(2,2-Me2,histaminyl)}-[Ala(1H-tetrazol-5-yl)]GSFSDE[Nle][dF]T[Aib]LDLK(Alloc)[Aib]AK(Alloc)DFINWLIQTKITD-NH2)	0.01	102	96	15.8

Now from value to compound:

EC50 (human GLP2 receptor) [nM]	Emax (human GLP2 receptor) [%]	Emax (human GLP1 receptor) [%]	EC50 (human GLP1 receptor) [nM]	Compound
0.01	102	94	6.31	C=CCOC(=O)NCCCC[C@H](NC(=O)[C@H](CC(C)C)NC(=O)[C@H](CC(=O)O)NC(=O)[C@H](CC(C)C)NC(=O)[C@@H](NC(=O)[C@@H](NC(=O)[C@@H](Cc1ccccc1)NC(=O)[C@H](CCCC)NC(=O)[C@H](CCC(=O)O)NC(=O)[C@H](CC(=O)O)NC(=O)[C@H](CO)NC(=O)[C@H](Cc1ccccc1)NC(=O)[C@H](CO)NC(=O)CNC(=O)[C@H](Cc1nn[nH]n1)NC(=O)C(C)(C)C(=O)NCCc1c[nH]cn1)[C@@H](C)O)[C@@H](C)CC)C(=O)NC(C)(C)C(=O)N[C@@H](C)C(=O)N[C@@H](CCCCN)C(=O)N[C@@H](CC(=O)O)C(=O)N[C@@H](Cc1ccccc1)C(=O)N[C@H](C(=O)N[C@@H](CC(N)=O)C(=O)N[C@@H](Cc1c[nH]c2ccccc12)C(=O)N[C@@H](CC(C)C)C(=O)N[C@H](C(=O)N[C@@H](CCC(N)=O)C(=O)N[C@H](C(=O)N[C@@H](CCCCN)C(=O)N[C@H](C(=O)N[C@H](C(=O)N[C@@H](CC(=O)O)C(N)=O)[C@@H](C)O)[C@@H](C)CC)[C@@H](C)O)[C@@H](C)CC)[C@@H](C)CC [Example 18] ({Malonyl(2,2-Me2,histaminyl)}-[Ala(1H-tetrazol-5-yl)]GSFSDE[Nle][dF]TILDLK(Alloc)[Aib]AKDFINWLIQTKITD-NH2)
0.01	102	92.7	2.51	C=CCOC(=O)NCCCC[C@H](NC(=O)[C@](C)(CC(C)C)NC(=O)[C@H](CC(=O)O)NC(=O)[C@H](CC(C)C)NC(=O)[C@@H](NC(=O)[C@@H](NC(=O)[C@@H](Cc1ccccc1)NC(=O)[C@H](CCCC)NC(=O)[C@H](CCC(=O)O)NC(=O)[C@H](CC(=O)O)NC(=O)[C@H](CO)NC(=O)[C@H](Cc1ccccc1)NC(=O)[C@H](CO)NC(=O)CNC(=O)[C@H](Cc1nn[nH]n1)NC(=O)C(C)(C)C(=O)NCCc1c[nH]cn1)[C@@H](C)O)[C@@H](C)CC)C(=O)N[C@@H](C)C(=O)N[C@@H](C)C(=O)N[C@@H](CCCCN)C(=O)N[C@@H](CC(=O)O)C(=O)N[C@@H](Cc1ccccc1)C(=O)N[C@H](C(=O)N[C@@H](CC(N)=O)C(=O)N[C@@H](Cc1c[nH]c2ccccc12)C(=O)N[C@@H](CC(C)C)C(=O)N[C@H](C(=O)N[C@@H](CCC(N)=O)C(=O)N[C@H](C(=O)N[C@@H](CCCCN)C(=O)N[C@H](C(=O)N[C@H](C(=O)N[C@@H](CC(=O)O)C(N)=O)[C@@H](C)O)[C@@H](C)CC)[C@@H](C)O)[C@@H](C)CC)[C@@H](C)CC [Example 19] ({Malonyl(2,2-Me2,histaminyl)}-[Ala(1H-tetrazol-5-yl)]GSFSDE[Nle][dF]TILD[αMeL]K(Alloc)AAKDFINWLIQTKITD-NH2)
